Assay results taken from ChEMBL document CHEMBL4818987, “Recent advances of podophyllotoxin/epipodophyllotoxin hybrids in anticancer activity, mode of action, and structure-activity relationship: An update (2010-2020)” (Eur J Med Chem, 2020).

Legend:
A549 [1] = test: Antiproliferative activity against human A549 cells incubated for 24 hrs by MTT assay; assay type: functional, cell-based; conditions: A549, 24 h
HeLa [2] = test: Antiproliferative activity against human HeLa cells incubated for 24 hrs by MTT assay; assay type: functional, cell-based
Calu-1 = test: Antiproliferative activity against human Calu-1 cells incubated for 24 hrs by MTT assay; assay type: functional, cell-based; conditions: Calu-1, 24 h
HeLa [3] = test: Antiproliferative activity against human HeLa cells incubated for 48 hrs by MTT assay; assay type: functional, cell-based
A549 [4] = test: Antiproliferative activity against human A549 cells incubated for 48 hrs by MTT assay; assay type: functional, cell-based; conditions: A549, 48 h
MCF7 = test: Antiproliferative activity against human MCF7 cells incubated for 48 hrs by MTT assay; assay type: functional, cell-based; conditions: MCF7, 48 h
HepG2 = test: Antiproliferative activity against human HepG2 cells incubated for 48 hrs by MTT assay; assay type: functional, cell-based; conditions: HepG2, 48 h
K562 = test: Cytotoxicity against human K562 cells incubated for 72 hrs by CCK8 assay; assay type: functional, cell-based; conditions: K562, 72 h
K562/Adr = test: Cytotoxicity against human K562/ADR cells incubated for 72 hrs by CCK8 assay; assay type: functional, cell-based
[5] = Resistance index, ratio of IC50 for human K562/ADR cells to IC50 for human K562 cells; assay type: functional
SW480 = test: Antiproliferative activity against human SW480 cells incubated for 48 hrs by MTT assay; assay type: functional, cell-based; conditions: SW480, 48 h
SMMC-7721 = test: Antiproliferative activity against human SMMC-7721 cells incubated for 48 hrs by MTT assay; assay type: functional, cell-based; conditions: SMMC-7721, 48 h
HL-60 = test: Antiproliferative activity against human HL-60 cells incubated for 48 hrs by MTT assay; assay type: functional, cell-based; conditions: HL-60, 48 h

Question: What does the source list for `COc1cc([C@@H]2c3cc4c(cc3[C@H](OC(=O)CCCCC3CCSC(c5ccccc5C)S3)[C@H]3COC(=O)[C@H]23)OCO4)cc(OC)c1OC` (some centres not stated)?
Answer: IC50 (A549 [1]): 2680 nM; IC50 (HeLa [2]): 2680 nM; IC50 (Calu-1): 2680 nM

Question: Which IC50 (HeLa [3]) does the source give for `COc1cc([C@@H]2c3cc4c(cc3[C@@H](O[C@@H]3CC[C@@H](O)[C@H](C)O3)[C@H]3COC(=O)[C@H]23)OCO4)cc(OC)c1O` here?
Answer: 41.6 nM

Question: What about the IC50 (A549 [4]) of the same compound?
Answer: 41.6 nM

Question: And the IC50 (MCF7)?
Answer: 41.6 nM

Question: And the IC50 (HepG2)?
Answer: 41.6 nM

Question: What does the source list for `COc1cc([C@@H]2c3cc4c(cc3[C@H](OC(=O)CCCCC3CCSC(c5cccc(Cl)c5Cl)S3)[C@H]3COC(=O)[C@H]23)OCO4)cc(OC)c1OC` (some centres not stated)?
Answer: IC50 (A549 [1]): 2680 nM; IC50 (HeLa [2]): 2680 nM; IC50 (Calu-1): 2680 nM

Question: Which IC50 (HeLa [3]) does the source give for `CC[C@H]1O[C@H](O[C@@H]2c3cc4c(cc3[C@@H](c3cc(OC)c(O)c(OC)c3)[C@H]3C(=O)OC[C@@H]32)OCO4)CC[C@H]1O` here?
Answer: 41.6 nM

Question: And the IC50 (A549 [4])?
Answer: 41.6 nM

Question: What about the IC50 (MCF7) of the same compound?
Answer: 41.6 nM

Question: And the IC50 (HepG2)?
Answer: 41.6 nM

Question: For `COc1cc([C@@H]2c3cc4c(cc3[C@H](OC(=O)/C=C/c3ccc(Cl)cc3)[C@H]3COC(=O)[C@H]23)OCO4)cc(OC)c1OC`, which IC50 (K562) is on record?
Answer: 11 nM

Question: And the IC50 (K562/Adr)?
Answer: 11 nM

Question: And the “Ratio IC50” value [5]?
Answer: 1.1

Question: With `COc1cc([C@@H]2c3cc4c(cc3[C@@H](O[C@H]3CC[C@@H](O)[C@@H](C)O3)[C@H]3COC(=O)[C@H]23)OCO4)cc(OC)c1O` as the compound, how does the IC50 (HeLa [3]) read?
Answer: 41.6 nM

Question: And the IC50 (A549 [4])?
Answer: 41.6 nM

Question: What about the IC50 (MCF7) of the same compound?
Answer: 41.6 nM

Question: And the IC50 (HepG2)?
Answer: 41.6 nM

Question: With `COc1ccc(/C=C/C(=O)O[C@H]2c3cc4c(cc3[C@@H](c3cc(OC)c(OC)c(OC)c3)[C@H]3C(=O)OC[C@@H]32)OCO4)cc1` as the compound, how does the IC50 (K562) read?
Answer: 11 nM

Question: What about the IC50 (K562/Adr) of the same compound?
Answer: 11 nM

Question: What about the “Ratio IC50” value [5] of the same compound?
Answer: 1.1

Question: With `COc1ccccc1C1SCCC(CCCCC(=O)O[C@H]2c3cc4c(cc3[C@@H](c3cc(OC)c(OC)c(OC)c3)[C@H]3C(=O)OC[C@@H]32)OCO4)S1` (some centres not stated) as the compound, how does the IC50 (A549 [1]) read?
Answer: 2680 nM

Question: What about the IC50 (HeLa [2]) of the same compound?
Answer: 2680 nM

Question: What about the IC50 (Calu-1) of the same compound?
Answer: 2680 nM

Question: Which IC50 (A549 [1]) does the source give for `COc1cc([C@@H]2c3cc4c(cc3[C@H](OC(=O)CCCCC3CCSC(c5ccccc5Cl)S3)[C@H]3COC(=O)[C@H]23)OCO4)cc(OC)c1OC` (some centres not stated) here?
Answer: 2680 nM

Question: What about the IC50 (HeLa [2]) of the same compound?
Answer: 2680 nM

Question: What about the IC50 (Calu-1) of the same compound?
Answer: 2680 nM

Question: What does the source list for `COc1cc([C@@H]2c3cc4c(cc3[C@@H](n3cc(COC(=O)CCCCCNC(=O)CCCC[C@@H]5SC[C@@H]6NC(=O)N[C@@H]65)nn3)[C@H]3COC(=O)[C@H]23)OCO4)cc(OC)c1OC`?
Answer: IC50 (A549 [4]): > 130 nM; IC50 (MCF7): > 130 nM; IC50 (SW480): > 130 nM; IC50 (SMMC-7721): > 130 nM; IC50 (HL-60): > 130 nM

Question: Which IC50 (HeLa [3]) does the source give for `CCC[C@@H]1O[C@@H](O[C@H]2c3cc4c(cc3[C@@H](c3cc(OC)c(OC)c(OC)c3)[C@H]3C(=O)OC[C@@H]32)OCO4)CC[C@H]1O` here?
Answer: 41.6 nM

Question: And the IC50 (A549 [4])?
Answer: 41.6 nM

Question: What about the IC50 (MCF7) of the same compound?
Answer: 41.6 nM

Question: And the IC50 (HepG2)?
Answer: 41.6 nM

Question: With `COc1cc([C@@H]2c3cc4c(cc3[C@H](OC(=O)/C=C/c3cccc(Cl)c3)[C@H]3COC(=O)[C@H]23)OCO4)cc(OC)c1OC` as the compound, how does the IC50 (K562) read?
Answer: 11 nM

Question: And the IC50 (K562/Adr)?
Answer: 11 nM

Question: What about the “Ratio IC50” value [5] of the same compound?
Answer: 1.1

Question: With `COc1cc([C@@H]2c3cc4c(cc3[C@@H](O[C@H]3O[C@H](COC(C)=O)[C@@H](OC(C)=O)[C@H](OC(C)=O)[C@H]3OC(C)=O)[C@H]3COC(=O)[C@H]23)OCO4)cc(OC)c1O` as the compound, how does the IC50 (A549 [4]) read?
Answer: > 140 nM

Question: And the IC50 (MCF7)?
Answer: > 140 nM

Question: And the IC50 (SW480)?
Answer: > 140 nM

Question: What about the IC50 (SMMC-7721) of the same compound?
Answer: > 140 nM

Question: And the IC50 (HL-60)?
Answer: > 140 nM

Question: Which IC50 (HeLa [3]) does the source give for `COc1cc([C@@H]2c3cc4c(cc3[C@@H](O[C@@H]3CC[C@@H](O)[C@H](C(C)C)O3)[C@H]3COC(=O)[C@H]23)OCO4)cc(OC)c1O` here?
Answer: 41.6 nM

Question: And the IC50 (A549 [4])?
Answer: 41.6 nM

Question: And the IC50 (MCF7)?
Answer: 41.6 nM

Question: And the IC50 (HepG2)?
Answer: 41.6 nM

Question: Which IC50 (A549 [1]) does the source give for `COc1cc([C@@H]2c3cc4c(cc3[C@H](OC(=O)CCCCC3CCSC(c5ccc(C(C)C)cc5)S3)[C@H]3COC(=O)[C@H]23)OCO4)cc(OC)c1OC` (some centres not stated) here?
Answer: 2680 nM

Question: And the IC50 (HeLa [2])?
Answer: 2680 nM

Question: And the IC50 (Calu-1)?
Answer: 2680 nM

Question: What does the source list for `CCC[C@H]1O[C@@H](O[C@@H]2c3cc4c(cc3[C@@H](c3cc(OC)c(O)c(OC)c3)[C@H]3C(=O)OC[C@@H]32)OCO4)CC[C@H]1O`?
Answer: IC50 (HeLa [3]): 41.6 nM; IC50 (A549 [4]): 41.6 nM; IC50 (MCF7): 41.6 nM; IC50 (HepG2): 41.6 nM

Question: What does the source list for `COc1cc([C@@H]2c3cc4c(cc3[C@@H](O[C@@H]3CC[C@@H](O)[C@@H](C(C)C)O3)[C@H]3COC(=O)[C@H]23)OCO4)cc(OC)c1O`?
Answer: IC50 (HeLa [3]): 41.6 nM; IC50 (A549 [4]): 41.6 nM; IC50 (MCF7): 41.6 nM; IC50 (HepG2): 41.6 nM

Question: What does the source list for `COc1cc([C@@H]2c3cc4c(cc3[C@@H](n3cc(COC(=O)CCCC[C@@H]5SC[C@@H]6NC(=O)N[C@@H]65)nn3)[C@H]3COC(=O)[C@H]23)OCO4)cc(OC)c1OC`?
Answer: IC50 (A549 [4]): > 130 nM; IC50 (MCF7): > 130 nM; IC50 (SW480): > 130 nM; IC50 (SMMC-7721): > 130 nM; IC50 (HL-60): > 130 nM
